Holding throughout (type): cell-based
For one assay, the system named is Toledo cells. As to the kind of experiment: Cell proliferation assay, Toledo cells (MTS, 72 h). The following applies: Homo sapiens, Toledo cells, MTS, read-out: Toledo IC50. In short, it runs like this:
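IC50 was derived from 490 nm absorbance after a 2 h MTS step. Before that, compounds at 1.5–10000 nM final (nine points) acted on Toledo cells for 72 h at 37 °C, 5% CO2. Cells were seeded at 30000/well in 10% FBS RPMI-1640 and rested 4 h before dosing.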

A further assay relates to RS4;11-BCL-2 G101V cells. Put plainly: Cell proliferation assay, engineered RS4;11 cells stably overexpressing BCL-2 G101V (MTS, 168 h). The following applies: Homo sapiens, RS4-11, 168 h, read-out: RS4, 11 BCL2- G101V. In short, it runs like this: (§1)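 Proliferation read-out: MTS for exactly 2 h, then absorbance at 490 nm, with IC50 derived from the fit. Before this, engineered RS4;11 lines (BCL-2 G101V, F104L; 5000 cells/well) were exposed 168 h at 37 °C to serially diluted compound, final 1.4–10000 nM.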

A further assay deals with RS4;11-BCL-2 F104L cells. As to the kind of experiment: Cell proliferation assay, engineered RS4;11 cells stably overexpressing BCL-2 F104L (MTS, 168 h). The following applies: Homo sapiens, read-out: RS4, 11 BCL2-F104L. The method, boiled down:
as §1

SMILES strings stand for the structures.

Take `CC(C)c1ccccc1[C@@H]1CCCN1C1CC2(CCN(c3ccc(C(=O)NS(=O)(=O)c4cc5c(c([N+](=O)[O-])c4)N[C@@H]([C@H]4CC[C@](C)(O)CC4)CO5)c(Oc4cc5cc[nH]c5nc4O[C@@H]4CCN(C)C4)c3)CC2)C1` (single isomer, unassigned) [Example D-223, N-(((S)-3-((1r,4S)-4-hydroxy-4-methylcyclohexyl)-5-nitro-3,4-dihydro-2H-benzo[b][1,4]oxazin-7-yl)sulfonyl)-4-(2-((R or S)-2-(2-isopropylphenyl)pyrrolidin-1-yl)-7-azaspiro[3.5]nonan-7-yl)-2-((6-(((R)-1-methylpyrrolidin-3-yl)oxy)-1H-pyrrolo[2,3-b]pyridin-5-yl)oxy)benzamide]: the IC50 in the assay on Toledo cells, in the assay with RS4;11-BCL-2 G101V cells and with RS4;11-BCL-2 F104L cells was 1 nM in each case.
On to `CC(C)c1ccccc1[C@@H]1CCCN1C1CC2(CCN(c3ccc(C(=O)NS(=O)(=O)c4cc5c(c([N+](=O)[O-])c4)N[C@@H]([C@H]4CC[C@](C)(O)CC4)CO5)c(Oc4cc5cc[nH]c5nc4O[C@@H]4C[C@@H](CO)N(C)C4)c3)CC2)C1` (single isomer, unassigned) [Example D-250, N-(((S)-3-((1r,4S)-4-hydroxy-4-methylcyclohexyl)-5-nitro-3,4-dihydro-2H-benzo[b][1,4]oxazin-7-yl)sulfonyl)-2-((6-(((3R,5S)-5-(hydroxymethyl)-1-methylpyrrolidin-3-yl)oxy)-1H-pyrrolo[2,3-b]pyridin-5-yl)oxy)-4-(2-((R or S)-2-(2-isopropylphenyl)pyrrolidin-1-yl)-7-azaspiro[3.5]nonan-7-yl)benzamide], for which the IC50 in the assay on Toledo cells, with RS4;11-BCL-2 G101V cells and with RS4;11-BCL-2 F104L cells was 1 nM in each case.
As to `CC(C)c1ccccc1[C@@H]1CCCN1C1CC2(CCN(c3ccc(C(=O)NS(=O)(=O)c4cc5c(c([N+](=O)[O-])c4)N[C@@H]([C@H]4CC[C@](C)(O)CC4)CO5)c(Oc4cc5cc[nH]c5nc4OC[C@H]4CCN4C)c3)CC2)C1` (single isomer, unassigned) [Example D-123, N-(((S)-3-((1r,4S)-4-hydroxy-4-methylcyclohexyl)-5-nitro-3,4-dihydro-2H-benzo[b][1,4]oxazin-7-yl)sulfonyl)-4-(2-((R or S)-2-(2-isopropylphenyl)pyrrolidin-1-yl)-7-azaspiro[3.5]nonan-7-yl)-2-((6-(((7)-1-methylazetidin-2-yl)methoxy)-1H-pyrrolo[2,3-b]pyridin-5-yl)oxy)benzamide], the IC50 was found to be 1 nM in the assay with Toledo cells, 1 nM with RS4;11-BCL-2 G101V cells and 11 nM in the assay with RS4;11-BCL-2 F104L cells.
On to `CC(C)c1ccccc1[C@@H]1CCCN1C1CC2(CCN(c3ccc(C(=O)NS(=O)(=O)c4cc5c(c([N+](=O)[O-])c4)N[C@@H]([C@H]4CC[C@](C)(O)CC4)CO5)c(Oc4cc5cc[nH]c5nc4OCCN(C)C)c3)CC2)C1` (single isomer, unassigned) [Example D-60, 2-((6-(2-(dimethylamino)ethoxy)-1H-pyrrolo[2,3-b]pyridin-5-yl)oxy)-N-(((S)-3-((1r,4S)-4-hydroxy-4-methylcyclohexyl)-5-nitro-3,4-dihydro-2H-benzo[b][1,4]oxazin-7-yl)sulfonyl)-4-(2-((R or S)-2-(2-isopropylphenyl)pyrrolidin-1-yl)-7-azaspiro[3.5]nonan-7-yl)benzamide], for which the IC50 in the assay with Toledo cells, with RS4;11-BCL-2 G101V cells and with RS4;11-BCL-2 F104L cells was 1 nM each time.
As for `COCCOc1nc2[nH]cc(F)c2cc1Oc1cc(N2CCC3(CC2)CN([C@H]2CCC[C@H]2c2ccccc2C(C)C)C3)ccc1C(=O)NS(=O)(=O)c1cnc(NC[C@H]2CC[C@](C)(O)CC2)c([N+](=O)[O-])c1` (single isomer, unassigned) [Example A-154, 2-((3-fluoro-6-(2-methoxyethoxy)-1H-pyrrolo[2,3-b]pyridin-5-yl)oxy)-N-((6-(((1r,4r)-4-hydroxy-4-methyl-cyclohexyl)methyl)amino)-5-nitro-pyridin-3-yl)sulfonyl)-4-(2-((1S,2S or 1R,2R)-2-(2-isopropylphenyyl)cyclo-pentyl)-2,7-diazaspiro[3.5]nonan-7-yl) benzamide], the figures for the IC50 with Toledo cells, with RS4;11-BCL-2 G101V cells and in the assay with RS4;11-BCL-2 F104L cells were 1 nM, 57 nM and 19 nM, respectively.

These data come from patent US20230159527A1, “COMPOUNDS AS BCL-2 INHIBITORS” (Fochon Pharmaceuticals, Ltd., priority 2020, published 2023).
